Measurements taken from PMC11984392, “EphA2-targeted alpha-particle theranostics for enhancing PDAC treatment” (Theranostics, 2025).
Like-named read-outs stand apart in the source and are kept apart here. *1 amine or outer side, *2 acyl side, *3 side chain or, on linkers, in order; H or OH if unused. Where a SMILES comes first, the peptide text is derived from it. Bridges are numbered along the chain shown (N, C = ends). [ ]: non-standard residue; d: D form. The star is where a group is joined. TATA = O=C(CC[*:1])N1CN(C(=O)CC[*:2])CN(C(=O)CC[*:3])C1; NOTA = O=C(O)CN1CCN(CC(=O)O)CCN(CC(=O)*)CC1; Hyp = O=C(O)[C@@H]1C[C@@H](O)CN1; hArg = N=C(N)NCCCC[C@H](N)C(=O)O; PEG2 = NCCOCCOCCC(=O)O; Sar = CNCC(=O)O

What was measured:
[1] = system: KPC syngeneic tumor; assay: Ex vivo biodistribution; type: in vivo, mice; settings: KPC syngeneic tumor; 60 min p.i.; mean ± SEM (n = 5)
Method: (§1) Mice with 100-200 mm^3 tumor volume were used for ex vivo biodistribution studies. For radiotracer pharmacokinetics and dosimetry studies, mice with Panc1 tumor xenograft received ~80 µCi (2.96 MBq) [^68Ga]AJ201 and were sacrificed at pre-determined time points (5, 30, 60, 90 and 120 min). All other mice were injected with ~50 µCi (1.85 MBq; 0.2 to 0.5 nmol) Ga-68 labeled radiotracer and were sacrificed at 60 min. The selected tissues were collected, weighed, counted, and their %ID/g values calculated for biodistribution analysis. For pharmacokinetics and dosimetry studies, selected tissues included blood, muscle, tumor, thymus, heart, lung, liver, pancreas, stomach, small intestine, large intestine, spleen, adrenals, kidney, bladder, femur, brain and tumor xenografts. For other studies, selected tissues were blood, muscle, tumor, heart, lung, liver, pancreas, small intestine, spleen, kidney.

[2] = Ex vivo biodistribution; type: in vivo, mice; settings: mouse, in vivo, total radioactivity, KPC syngeneic tumor, 60 min p.i., mean ± SEM (n = 5)
Method: as §1

[3] = system: Su8686 cells; assay: In vitro binding assay with Ga-68 radiotracer; type: cell-based, human; settings: 1 µCi, 60 min, 4 °C, mean ± SD (n = 3-4)
Method: In vitro binding assays were performed to determine the binding of [^68Ga]AJ201 and [^68Ga]AJ210 to Jurkat and PDAC cell lines. Approximately 1 μCi of radiotracer was incubated with cells in 100 μL culture media for 60 min at 4 °C. After incubation, cells were washed three times with ice cold PBS and counted on an automated gamma counter (1282 Compugamma CS, Pharmacia/LKBNuclear, Inc., Gaithersburg, MD). […] For kinetic study, 8×10^6 Panc1 cells/vial were incubated with approximately 8 μCi/vial of [^68Ga]AJ201 in culture media in triplicates at 37 °C and 4 °C in separate tubes. 1×10^6 cells were aliquoted at predetermined timepoints (5, 15, 30, 60 min). Excess radioactivity was removed by washing three times with PBS. Activity in cell pellets were measured on an automated gamma counter.

[4] = system: Panc1 tumor xenografts; assay: Whole-body dynamic PET pharmacokinetics; type: in vivo, NSG mice; settings: ~250 µCi i.v., remaining constant until 90 min
Method: Dynamic PET images were acquired on a Simultaneous 7T Bruker PET-MR scanner to evaluate the pharmacokinetics of [^68Ga]AJ201. Mice bearing Panc1 tumor xenografts were anesthetized under 2.5% isoflurane and a catheter was fixed in the tail vein before being secured on the PET-MR bed. An activity of ~250 µCi (9.3 MBq; 0.5 to 0.8 nmol) of [^68Ga]AJ201 was administered intravenously and whole-body PET dynamic scans were performed. Dynamic PET scans were initiated one min before radiotracer injection and acquired at varying intervals to capture early and late-phase kinetics: every 30 s from -1 to 5 min, every min from 5 to 15 min, every 3 min from 15 to 30 min, every 5 min from 30 to 60 min, and every 10 min from 60 to 90 min. The acquired PET data were reconstructed and corrected for radioactive decay and dead time using ParaVision 360 V2 by Bruker. The percentage of injected dose per cc (%ID/cc) values were obtained by drawing ROI on the tumor, muscle, heart, liver and kidney using PMOD software, and image fusion and visualization were also performed using PMOD software.

[5] = Human radiation dosimetry estimates (MIRDCalc)
Text: Pharmacokinetic data obtained from biodistribution studies of Panc1 tumor-bearing mice were utilized to predict the time-integrated activity coefficients (TIACs, formerly known as residence times) of [^68Ga]AJ201 in humans, as previously described [28]-[30]. These TIAC estimates were then input into MIRDCalc to determine the absorbed dose coefficients for organs from ^68Ga using the ICRP adult female reference phantom (Table S4).

[6] = In vitro stability of radiotracers in human serum; type: in vitro ADME; settings: radio-RP-HPLC after ultrafiltration (10 kDa)
Method: The stability of the radiotracers was assessed in saline and human serum at 37 °C to mimic physiological conditions. Approximately 1.5 mCi of the radiotracer, prepared in 100-150 µL of saline, was added to 0.5 mL of either saline or human serum in separate microcentrifuge tubes. The mixtures were gently vortexed and then incubated at 37 °C in an incubator. At predetermined time-points (1, 2, and 3 h), 100 µL aliquots were collected from the incubation mixtures for analysis. For serum samples, proteins were removed by adding 100 µL of saline and 50 µL of ethanol, followed by ultrafiltration using 10 kDa centrifugal filters made of regenerative cellulose membranes. The filtration process was performed by centrifugation at 14,000 rpm for 10 min and repeated once more to ensure complete protein removal. The filtrate was collected for analysis. The radiochemical integrity of the radiotracer in both saline and serum was evaluated using radio-RP-HPLC.

[7] = absorbed dose coefficient, MIRDCalc, ICRP adult female reference phantom
[8] = absorbed dose coefficient, MIRDCalc, ICRP adult female reference phantom, listed as [68Ga]AJ201
[9] = predicted for humans from Panc1 mouse biodistribution

## CC(C)C[C@@H]1NC(=O)[C@@H]2CSCCC(=O)N3CN(CN(C3)C(=O)CCSC[C@H](NC(=O)[C@H](CC(=O)O)NC(=O)[C@H](CCCCNC(=N)N)NC(=O)[C@H](C)NC(=O)CNC(=O)CN(C)C(=O)CN(C)C(=O)CN(C)C(=O)[C@H](CCCNC(=N)N)NC(=O)CNC(=O)CCOCCOCCNC(=O)CN3CCN(CC(=O)O)CCN(CC(=O)O)CC3)C(=O)N3C[C@H](O)C[C@H]3C(=O)N[C@@H](CC(C)C)C(=O)N[C@@H](C(C)C)C(=O)N[C@@H](CC(N)=O)C(=O)N3CCC[C@H]3C(=O)N[C@@H](CC(C)C)C(=O)N2)C(=O)CCSC[C@@H](C(N)=O)NC(=O)[C@H](CCCCNC(=N)N)NC(=O)[C@H](Cc2c[nH]c3ccccc23)NC(=O)[C@@H](CC(=O)O)NC(=O)[C@@H]2CCCN2C(=O)[C@H](Cc2c[nH]cn2)NC1=O [[^68Ga]AJ201, metal not drawn] ({NOTA-PEG2}-GR[Sar][Sar][Sar]GA[hArg]DC[Hyp]LVNPLCLHP[dD]W[hArg]C-NH2; linker 10-17-24 via TATA)
[1]
  Brain uptake: 0.04 ± 0.01 %ID/g
[2]; 50 uCi, read-out: Bladder uptake
  tissue uptake at 1 h: 74.9 ± 15.3 %ID/g
[2]; 50 uCi, read-out: Femur uptake
  tissue uptake at 1 h: 0.71 ± 0.22 %ID/g
[2]; 50 uCi, read-out: Heart uptake
  tissue uptake at 1 h: 0.3 ± 0.06 %ID/g
[2]; 50 uCi, read-out: Kidney uptake
  tissue uptake at 1 h: 50.3 ± 9.75 %ID/g
[2]; 50 uCi, read-out: Liver uptake
  tissue uptake at 1 h: 2.46 ± 0.77 %ID/g
[2]; 50 uCi, read-out: Lung uptake
  tissue uptake at 1 h: 0.78 ± 0.13 %ID/g
[2]; 50 uCi, read-out: Muscle uptake
  tissue uptake at 1 h: 0.28 ± 0.08 %ID/g
[2]; 50 uCi, read-out: Pancreas uptake
  tissue uptake at 1 h: 0.22 ± 0.04 %ID/g
[2]; 50 uCi, read-out: Small intestine uptake
  tissue uptake at 1 h: 0.62 ± 0.25 %ID/g
[2]; 50 uCi, read-out: Stomach uptake
  tissue uptake at 1 h: 0.95 ± 0.26 %ID/g
[2]; 50 uCi, read-out: Tumor uptake
  tissue uptake at 1 h: 1.51 ± 0.28 %ID/g
[2]; 50 uCi, read-out: Tumor/Muscle ratio
  tissue to tissue ratio at 1 h: 6 ± 0.77
[2]; 50 uCi, read-out: Tumor/Pancreas ratio
  tissue to tissue ratio at 1 h: 6.67 ± 2.18
[2]; 50 uCi, read-out: Tumor/blood ratio
  tissue to tissue ratio at 1 h: 2.17 ± 0.46
[2]; read-out: Blood uptake
  tissue uptake at 1 h: 0.75 ± 0.15 %ID/g
[2]; read-out: Large Intestine uptake
  tissue uptake at 1 h: 0.61 ± 0.28 %ID/g
[2]; read-out: Spleen uptake
  tissue uptake at 1 h: 0.71 ± 0.3 %ID/g
[3]
  Cell binding (percent incubated activity): 22.0 ± 1.1 %IA
[4]
  Time of peak tumor radioactivity (ROI analysis): 30 min
[5]; [7]
  Organ dose, Adrenals: 0.06 rem/mCi
  Organ dose, Bladder: 0.15 rem/mCi
  Organ dose, Brain: 0.003215 rem/mCi
  Organ dose, Femur: 0.01421 rem/mCi
  Organ dose, Heart: 0.03275 rem/mCi
  Organ dose, Kidney: 0.38 rem/mCi
  Organ dose, Large Intestine: 0.01839 rem/mCi
  Organ dose, Liver: 0.02398 rem/mCi
  Organ dose, Lung: 0.04 rem/mCi
  Organ dose, Muscle: 0.00962 rem/mCi
  Organ dose, Pancreas: 0.02708 rem/mCi
  Organ dose, Small intestine: 0.01639 rem/mCi
  Organ dose, Spleen: 0.03644 rem/mCi
  Organ dose, Stomach with contents: 0.0158 rem/mCi
  Organ dose, Thymus: 0.02016 rem/mCi
[5]; [8]
  Organ dose, Adrenals: 0.06253 rem/mCi
  Organ dose, Bladder: 0.1513 rem/mCi
  Organ dose, Kidney: 0.3885 rem/mCi
  Organ dose, Lung: 0.04292 rem/mCi
[5]; at 13 mCi dose, human estimate
  Estimated effective dose equivalent: less than 5 rem
[5]; human estimate
  Dose that can be safely administered for PET imaging: 13 mCi
[5]; [9]
  Residence time (TIAC), Adrenals: 0.0002761 h
  Residence time (TIAC), Bladder: 0.006394 h
  Residence time (TIAC), Blood: 0.05152 h
  Residence time (TIAC), Brain: 0.0008446 h
  Residence time (TIAC), Femur: 0.005607 h
  Residence time (TIAC), Heart: 0.001764 h
  Residence time (TIAC), Kidney: 0.08395 h
  Residence time (TIAC), Large Intestine: 0.001341 h
  Residence time (TIAC), Liver: 0.01723 h
  Residence time (TIAC), Lung: 0.01099 h
  Residence time (TIAC), Muscle: 0.07064 h
  Residence time (TIAC), Pancreas: 0.0006321 h
  Residence time (TIAC), Small intestine: 0.003647 h
  Residence time (TIAC), Spleen: 0.002451 h
  Residence time (TIAC), Stomach with contents: 0.0004823 h
  Residence time (TIAC), Thymus: 0.0002384 h
[6]; 37 °C, 1, 2 and 3 h, ~1.5 mCi in 0.5 mL
  Stability in human serum (radio-HPLC finding): stable without noticeable degradation or impurity formation
[6]; 37 °C
  Time of stability in human serum: at least 3 h
